Where only a bound is given, the exact number is not on record here.

What is called IC50 is the midpoint of a concentration-inhibition curve. Higher therefore signals lower potency.

The target of this assay is T1, AKT1-E17K (Homo sapiens, UniProt P31749, E17K).
T1 construct: host or cells: HEK-293 (ATCC CRL-1573)
T1 sequence (P31749 whole entry E17K): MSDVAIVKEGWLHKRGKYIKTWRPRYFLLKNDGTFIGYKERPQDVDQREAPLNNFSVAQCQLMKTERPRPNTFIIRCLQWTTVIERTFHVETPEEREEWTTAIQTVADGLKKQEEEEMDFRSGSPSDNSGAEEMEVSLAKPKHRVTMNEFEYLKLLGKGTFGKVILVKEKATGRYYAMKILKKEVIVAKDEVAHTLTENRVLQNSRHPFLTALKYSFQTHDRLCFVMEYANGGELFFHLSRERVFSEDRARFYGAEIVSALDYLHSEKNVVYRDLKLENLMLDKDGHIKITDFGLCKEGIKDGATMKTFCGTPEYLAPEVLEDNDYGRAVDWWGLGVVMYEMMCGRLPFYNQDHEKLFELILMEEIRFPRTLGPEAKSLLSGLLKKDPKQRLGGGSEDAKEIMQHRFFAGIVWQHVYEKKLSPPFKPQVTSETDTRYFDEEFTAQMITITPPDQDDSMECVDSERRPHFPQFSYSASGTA
The experiment in a line: NanoBRET Target Engagement (TE) Assay. The assay is classed as cell-based. An outline of the steps: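 Live cells transiently expressing NanoLuc-AKT1 E17K fusion, incubated 2 h with tracer and compound before substrate plus extracellular NanoLuc inhibitor were added. BRET read at 450/600 nm; EC50 from variable-slope sigmoidal fit of tracer displacement.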
Background: In BRET a luciferase serves as donor, and the signal depends on an acceptor being close.
On to `N#Cc1cccc(-c2ccc3nc(-c4cccnc4N)n(-c4ccc(CN5CCN(C(=O)c6ccc(C=O)c(O)c6)CC5)cc4)c3n2)c1` [Example 35, 3-(2-(2-Aminopyridin-3-yl)-3-(4-((4-(4-formyl-3-hydroxybenzoyl)piperazin-1-yl)methyl)phenyl)-3H-imidazo[4,5-b]pyridin-5-yl)benzonitrile], for which the IC50 was in the range of 60 to 600 nM.

For the molecule `C[C@H]1CN(Cc2ccc(-n3c(-c4cccnc4N)nc4ccc(-c5ccccc5)nc43)cc2)CCN1C(=O)c1ccc(O)c(C=O)c1` [Example 105, (S)-5-(4-(4-(2-(2-Aminopyridin-3-yl)-5-phenyl-3H-imidazo[4,5-b]pyridin-3-yl)benzyl)-2-methylpiperazine-1-carbonyl)-2-hydroxybenzaldehyde], the IC50 lay in the range of 60 to 600 nM.

As for `Nc1ncccc1-c1nc2ccc(-c3ccccc3)nc2n1-c1ccc(CN2CCN(c3ccc(C=O)c(O)c3)C3(CC3)C2)cc1` [Example 108, 4-(7-(4-(2-(2-Aminopyridin-3-yl)-5-phenyl-3H-imidazo[4,5-b]pyridin-3-yl)benzyl)-4,7-diazaspiro[2.5]octan-4-yl)-2-hydroxybenzaldehyde], the 50% inhibitory concentration (IC50) fell in the range of 60 to 600 nM.

In turn, `Nc1ncccc1-c1nc2ccc(-c3ccccc3)nc2n1-c1ccc(CN2C[C@@H]3CN(c4ccc(C=O)c(O)c4)C[C@@H]3C2)cc1` [Example 133, 4-((3aR,6aS)-5-(4-(2-(2-Aminopyridin-3-yl)-5-phenyl-3H-imidazo[4,5-b]pyridin-3-yl)benzyl)hexahydropyrrolo[3,4-c]pyrrol-2(1H)-yl)-2-hydroxybenzaldehyde] yielded a concentration for half-maximal inhibition (IC50) of 60 to 600 nM.

In turn, `Nc1ncccc1-c1nc2ccc(-c3ccccc3)nc2n1-c1ccc(CN2CCN(c3cc(O)c(C=O)cc3Br)CC2)cc1` [Example 27, 4-(4-(4-(2-(2-Aminopyridin-3-yl)-5-phenyl-3H-imidazo[4,5-b]pyridin-3-yl)benzyl)piperazin-1-yl)-5-bromo-2-hydroxybenzaldehyde] displayed an IC50 of 60 to 600 nM.

The molecule `Nc1ncccc1-c1nc2ccc(-c3ccc(F)cc3)nc2n1-c1ccc(CN2CCN(C(=O)c3ccc(O)c(C=O)c3)CC2)cc1` [Example 143, 5-(4-(4-(2-(2-Aminopyridin-3-yl)-5-(4-fluorophenyl)-3H-imidazo[4,5-b]pyridin-3-yl)benzyl)piperazine-1-carbonyl)-2-hydroxybenzaldehyde] had a concentration for half-maximal inhibition (IC50) of 60 to 600 nM.

`Nc1ncccc1-c1nc2ccc(-c3ccccc3)nc2n1-c1ccc(CN2CC[C@@]3(CCN(C(=O)c4ccc(O)c(C=O)c4)C3)C2)cc1` [Example 98, (R)-5-(7-(4-(2-(2-aminopyridin-3-yl)-5-phenyl-3H-imidazo[4,5-b]pyridin-3-yl)benzyl)-2,7-diazaspiro[4.4]nonane-2-carbonyl)-2-hydroxybenzaldehyde] displayed an IC50 of 15 to 60 nM.

`Nc1ncccc1-c1nc2ccc(-c3ccccc3)nc2n1-c1ccc(CN2CCC(NC(=O)c3ccc(C=O)c(O)c3)CC2)cc1` [Example 8, N-(1-(4-(2-(2-Aminopyridin-3-yl)-5-phenyl-3H-imidazo[4,5-b]pyridin-3-yl)benzyl)piperidin-4-yl)-4-formyl-3-hydroxybenzamide] gave a half-maximal inhibitory concentration (IC50) of 60 to 600 nM.

On to `Nc1ncccc1-c1nc2ccc(-c3ccccc3)nc2n1-c1ccc(CN2C[C@H]3CN(C(=O)c4ccc(C=O)c(O)c4)C[C@@H]3C2)cc1` [Example 136, 4-((3aS,6aS)-5-(4-(2-(2-Aminopyridin-3-yl)-5-phenyl-3H-imidazo[4,5-b]pyridin-3-yl)benzyl)octahydropyrrolo[3,4-c]pyrrole-2-carbonyl)-2-hydroxybenzaldehyde], for which the IC50 was 60 to 600 nM.

For `Nc1ncccc1-c1nc2ccc(-c3ccccc3)nc2n1-c1ccc(CN2CCCCC(NC(=O)c3ccc(C=O)c(O)c3)C2)cc1` (stereo not drawn) [Example 118, N-(1-(4-(2-(2-Aminopyridin-3-yl)-5-phenyl-3H-imidazo[4,5-b]pyridin-3-yl)benzyl)azepan-3-yl)-4-formyl-3-hydroxybenzamide], the IC50 is > 600 nM.

The molecule `Nc1ncccc1-c1nc2ccc(-c3ccccc3)nc2n1-c1ccc(CN2CC[C@@]3(CCN(c4ccc(C=O)c(O)c4)C3)C2)cc1` [Example 100, (R)-4-(7-(4-(2-(2-Aminopyridin-3-yl)-5-phenyl-3H-imidazo[4,5-b]pyridin-3-yl)benzyl)-2,7-diazaspiro[4.4]nonan-2-yl)-2-hydroxybenzaldehyde] yielded an IC50 of 60 to 600 nM.

On to `Nc1ncccc1-c1nc2ccc(-c3ccccc3)nc2n1-c1ccc(CN2C[C@@H]3C[C@H]2CN3c2ccc(C=O)c(O)c2)cc1` [Example 123, 4-((1S,4S)-5-(4-(2-(2-Aminopyridin-3-yl)-5-phenyl-3H-imidazo[4,5-b]pyridin-3-yl)benzyl)-2,5-diazabicyclo[2.2.1]heptan-2-yl)-2-hydroxybenzaldehyde], for which the concentration for half-maximal inhibition (IC50) was in the range of 60 to 600 nM.
